# Patent US11084829B2, “Ubiquitin-specific-processing protease 7 (USP7) modulators and uses thereof” (RAPT THERAPEUTICS, INC., priority 2018, dated 2021)
# pIC50: −log10 of the molar value.
# Biological target: USP7 (Homo sapiens, UniProt Q93009)
# Assay: USP7 inhibitory potency (IC50)
# Assay type: biochemical
# Description: Activity for compounds described herein is provided in Table 2, wherein potency levels are provided as follows: (Potency: USP7 IC50: A<0.01 μM; B=0.01-0.1 μM; C=>0.1 μM.
# USP7, sequence (Q93009 whole entry): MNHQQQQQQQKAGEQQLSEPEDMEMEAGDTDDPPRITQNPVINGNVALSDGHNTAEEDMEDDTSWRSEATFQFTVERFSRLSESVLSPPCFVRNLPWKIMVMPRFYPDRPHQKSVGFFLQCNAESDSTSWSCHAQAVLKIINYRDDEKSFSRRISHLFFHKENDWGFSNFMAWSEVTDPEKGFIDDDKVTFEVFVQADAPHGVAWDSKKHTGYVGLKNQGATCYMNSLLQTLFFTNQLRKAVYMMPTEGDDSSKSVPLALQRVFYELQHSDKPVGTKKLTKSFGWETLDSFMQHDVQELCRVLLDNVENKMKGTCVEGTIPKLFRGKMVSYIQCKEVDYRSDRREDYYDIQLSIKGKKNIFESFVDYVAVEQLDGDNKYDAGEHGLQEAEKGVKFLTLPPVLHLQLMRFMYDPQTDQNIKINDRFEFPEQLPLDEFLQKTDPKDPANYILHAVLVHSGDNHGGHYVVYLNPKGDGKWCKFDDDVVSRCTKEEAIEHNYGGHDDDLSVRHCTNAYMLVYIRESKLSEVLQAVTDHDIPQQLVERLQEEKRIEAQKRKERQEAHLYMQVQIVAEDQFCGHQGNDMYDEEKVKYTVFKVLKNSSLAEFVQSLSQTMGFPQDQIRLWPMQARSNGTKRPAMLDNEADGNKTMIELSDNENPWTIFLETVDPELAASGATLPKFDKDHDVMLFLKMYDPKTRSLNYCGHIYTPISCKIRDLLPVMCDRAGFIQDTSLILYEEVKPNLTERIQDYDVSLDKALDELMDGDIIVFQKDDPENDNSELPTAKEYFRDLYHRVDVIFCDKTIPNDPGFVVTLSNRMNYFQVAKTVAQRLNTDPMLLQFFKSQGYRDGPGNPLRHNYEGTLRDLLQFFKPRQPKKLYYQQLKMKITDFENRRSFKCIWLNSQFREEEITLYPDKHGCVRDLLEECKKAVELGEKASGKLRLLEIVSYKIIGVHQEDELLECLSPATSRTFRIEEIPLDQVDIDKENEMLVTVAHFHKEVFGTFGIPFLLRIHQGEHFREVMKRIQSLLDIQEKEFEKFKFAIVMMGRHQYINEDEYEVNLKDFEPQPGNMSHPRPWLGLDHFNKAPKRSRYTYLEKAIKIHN
row,Compound,pIC50
1,"Cc1cc(C(F)(F)F)cc(-c2ncnc3cc(CN4C(=O)C5CC5C4=O)sc23)c1CN1CCNC[C@@H]1C (stereo partly drawn) [Example 58, 3-((4-(3-methyl-2-(((S)-2-methylpiperazin-1-yl)methyl)-5-(trifluoromethyl)phenyl)thieno[3,2-d]pyrimidin-6-yl)methyl)-3-azabicyclo[3.1.0]hexane-2,4-dione]",7.00 to 8.00
2,"CCN1CC(=O)N(Cc2cc3ncnc(-c4cc(Cl)cc(C)c4CC4CNCCO4)c3s2)C1=O (stereo not drawn) [Example 188, 3-((4-(5-chloro-3-methyl-2-(morpholin-2-ylmethyl)phenyl)thieno[3,2-d]pyrimidin-6-yl)methyl)-1-ethylimidazolidine-2,4-dione]",> 8.00
3,"Cc1cc(Cl)cc(-c2ncnc3cc(CN4C(=O)CN(CC(F)F)C4=O)sc23)c1CN1[C@@H](C)CNC[C@@H]1C [Example 277, 3-((4-(5-chloro-2-(((2S,6S)-2,6-dimethylpiperazin-1-yl)methyl)-3-methylphenyl)thieno[3,2-d]pyrimidin-6-yl)methyl)-1-(2,2-difluoroethyl)imidazolidine-2,4-dione]",> 8.00
4,"Cc1cc(Cl)cc(-c2ncnc3cc(CN4C(=O)CC[C@H]4C(F)(F)F)sc23)c1CN1[C@@H](C)CNC[C@@H]1C [Example 90, (S)-1-((4-(5-chloro-2-(((2S,6S)-2,6-dimethylpiperazin-1-yl)methyl)-3-methylphenyl)thieno[3,2-d]pyrimidin-6-yl)methyl)-5-(trifluoromethyl)pyrrolidin-2-one]",< 7.00
5,"Cc1cc(Cl)cc(-c2ncnc3cc(CN4C(=O)C5CC5C4=O)sc23)c1CC1CNCC2(COC2)O1 (stereo not drawn) [Example 220, 3-((4-(2-((2,5-dioxa-8-azaspiro[3.5]nonan-6-yl)methyl)-5-chloro-3-methylphenyl)thieno[3,2-d]pyrimidin-6-yl)methyl)-3-azabicyclo[3.1.0]hexane-2,4-dione]",> 8.00
6,"Cc1cc(Cl)cc(-c2ccnc3cc(CN4C(=O)C5CCCN5C4=O)sc23)c1CC1CNCCO1 (stereo not drawn) [Example 116, 2-((7-(5-chloro-3-methyl-2-(morpholin-2-ylmethyl)phenyl)thieno[3,2-b]pyridin-2-yl)methyl)tetrahydro-1H-pyrrolo[1,2-c]imidazole-1,3(2H)-dione]",> 8.00
7,"Cc1cc(Cl)cc(-c2ccnc3cc(CN4C(=O)CCC4=O)sc23)c1CN1CCNC(C)C1 (stereo not drawn) [Example 18, 1-((7-(5-chloro-3-methyl-2-((3-methylpiperazin-1-yl)methyl)phenyl)thieno[3,2-b]pyridin-2-yl)methyl)pyrrolidine-2,5-dione]",> 8.00
8,"Cc1cc(Cl)cc(-c2ncnc3cc(CN4C(=O)C5CCCN5C4=O)sc23)c1CC1CNCC(C)(C)O1 (stereo not drawn) [Example 191, 2-((4-(5-chloro-2-((6,6-dimethylmorpholin-2-yl)methyl)-3-methylphenyl)thieno[3,2-d]pyrimidin-6-yl)methyl)tetrahydro-1H-pyrrolo[1,2-c]imidazole-1,3(2H)-dione]",> 8.00
9,"CC1(C)CNCC(Cc2c(-c3ncnc4cc(CN5C(=O)C6CC6C5=O)sc34)cc(Cl)cc2C(F)F)O1 (stereo not drawn) [Example 250, 3-((4-(5-chloro-3-(difluoromethyl)-2-((6,6-dimethylmorpholin-2-yl)methyl)phenyl)thieno[3,2-d]pyrimidin-6-yl)methyl)-3-azabicyclo[3.1.0]hexane-2,4-dione]",> 8.00
10,"Cc1cc(Cl)cc(-c2ncnc3cc(CN4C(=O)CN(C)C4=O)sc23)c1CC1CNCCO1 (stereo not drawn) [Example 177, 3-((4-(5-chloro-3-methyl-2-(morpholin-2-ylmethyl)phenyl)thieno[3,2-d]pyrimidin-6-yl)methyl)-1-methylimidazolidine-2,4-dione]",> 8.00
11,"Cc1cc(Cl)cc(-c2ncnc3cc(CN4C(=O)CCC4C(F)(F)F)sc23)c1CC1CNCC(C)(C)O1 (stereo not drawn) [Example 194, 1-((4-(5-chloro-2-((6,6-dimethylmorpholin-2-yl)methyl)-3-methylphenyl)thieno[3,2-d]pyrimidin-6-yl)methyl)-5-(trifluoromethyl)pyrrolidin-2-one]",> 8.00
12,"Cc1cc(Cl)cc(-c2ncnc3cc(CN4C(=O)C5C(C4=O)C5(C)C)sc23)c1C[C@@H]1CN(C(=O)C(F)(F)F)CCO1 (stereo partly drawn) [Example 201, 3-((4-(5-chloro-3-methyl-2-(((R)-4-(2,2,2-trifluoroacetyl)morpholin-2-yl)methyl)phenyl)thieno[3,2-d]pyrimidin-6-yl)methyl)-6,6-dimethyl-3-azabicyclo[3.1.0]hexane-2,4-dione]",7.00 to 8.00
13,"Cc1cc(Cl)cc(-c2ncnc3cc(CN4C(=O)CSC4=O)sc23)c1CN1C[C@@H](C)NC[C@@H]1C [Example 79, 3-((4-(5-chloro-2-(((2S,5R)-2,5-dimethylpiperazin-1-yl)methyl)-3-methylphenyl)thieno[3,2-d]pyrimidin-6-yl)methyl)thiazolidine-2,4-dione]",> 8.00
14,"Cc1cc(Cl)cc(-c2ncnc3cc(CN4C(=O)CCC4=O)sc23)c1C[C@H]1CNCC(C)(C)O1 [Example 212, (S)-1-((4-(5-chloro-2-((6,6-dimethylmorpholin-2-yl)methyl)-3-methylphenyl)thieno[3,2-d]pyrimidin-6-yl)methyl)pyrrolidine-2,5-dione]",7.00 to 8.00

# Second part, the molecule after the results:
row,pIC50,Compound
1,> 8.00,"Cc1cc(Cl)cc(-c2ncnc3cc(CN4C(=O)CCN(C)C4=O)sc23)c1C[C@@H]1CNCC(C)(C)O1 [Example 217, (R)-3-((4-(5-chloro-2-((6,6-dimethylmorpholin-2-yl)methyl)-3-methylphenyl)thieno[3,2-d]pyrimidin-6-yl)methyl)-1-methyldihydropyrimidine-2,4(1H,3H)-dione]"
2,> 8.00,"Cc1cc(Cl)cc(-c2ccnc3cc(CN4C(=O)CCC4=O)sc23)c1CC1CNCC(C)(C)O1 (stereo not drawn) [Example 119, 1-((7-(5-chloro-2-((6,6-dimethylmorpholin-2-yl)methyl)-3-methylphenyl)thieno[3,2-b]pyridin-2-yl)methyl)pyrrolidine-2,5-dione]"
3,> 8.00,"Cc1cc(Cl)cc(-c2ncnc3cc(CN4C(=O)CCCC4=O)sc23)c1CN1C[C@@H](C)NC[C@@H]1C [Example 69, 1-((4-(5-chloro-2-(((2S,5R)-2,5-dimethylpiperazin-1-yl)methyl)-3-methylphenyl)thieno[3,2-d]pyrimidin-6-yl)methyl)piperidine-2,6-dione]"
4,> 8.00,"Cc1cc(Cl)cc(-c2ncnc3cc(Cn4c(=O)ccn(C)c4=O)sc23)c1CC1CNCC2(CCC2)O1 (stereo not drawn) [Example 223, 3-((4-(2-((5-oxa-8-azaspiro[3.5]nonan-6-yl)methyl)-5-chloro-3-methylphenyl)thieno[3,2-d]pyrimidin-6-yl)methyl)-1-methylpyrimidine-2,4(1H,3H)-dione]"
5,> 8.00,"Cc1cc(Cl)cc(-c2ccnc3cc(Cn4c(=O)ccn(CC(F)(F)F)c4=O)sc23)c1CC1CNCCO1 (stereo not drawn) [Example 109, 3-((7-(5-chloro-3-methyl-2-(morpholin-2-ylmethyl)phenyl)thieno[3,2-b]pyridin-2-yl)methyl)-1-(2,2,2-trifluoroethyl)pyrimidine-2,4(1H,3H)-dione]"
6,> 8.00,"Cc1cc(Cl)cc(-c2ccnc3cc(CN4C(=O)C5CC5C4=O)sc23)c1CN1[C@@H](C)CN(C(C)C)C[C@@H]1C (stereo partly drawn) [Example 32, 3-((7-(5-chloro-2-(((2S,6S)-4-isopropyl-2,6-dimethylpiperazin-1-yl)methyl)-3-methylphenyl)thieno[3,2-b]pyridin-2-yl)methyl)-3-azabicyclo[3.1.0]hexane-2,4-dione]"
7,> 8.00,"CN1CC(=O)N(Cc2cc3ncnc(-c4cc(Cl)cc(Cl)c4CC4CNCC(C)(C)O4)c3s2)C1=O (stereo not drawn) [Example 253, 3-((4-(3,5-dichloro-2-((6,6-dimethylmorpholin-2-yl)methyl)phenyl)thieno[3,2-d]pyrimidin-6-yl)methyl)-1-methylimidazolidine-2,4-dione]"
8,> 8.00,"Cc1cc(Cl)cc(-c2ncnc3cc(CN4C(=O)CC[C@@H]4C(F)F)sc23)c1CC1CNCC(C)(C)O1 (stereo partly drawn) [Example 230, (5R)-1-((4-(5-chloro-2-((6,6-dimethylmorpholin-2-yl)methyl)-3-methylphenyl)thieno[3,2-d]pyrimidin-6-yl)methyl)-5-(difluoromethyl)pyrrolidin-2-one]"
9,> 8.00,"Cc1cc(Cl)cc(-c2ncnc3cc(CN4C(=O)CC(C)NC4=O)sc23)c1C[C@@H]1CNCCO1 (stereo partly drawn) [Example 248, 3-((4-(5-chloro-3-methyl-2-(((R)-morpholin-2-yl)methyl)phenyl)thieno[3,2-d]pyrimidin-6-yl)methyl)-6-methyldihydropyrimidine-2,4(1H,3H)-dione]"
10,> 8.00,"C[C@H]1CNC[C@H](C)N1Cc1c(Cl)cc(Cl)cc1-c1ncnc2cc(CN3C(=O)CN(C)C3=O)sc12 [Example 94, 3-((4-(3,5-dichloro-2-(((2S,6S)-2,6-dimethylpiperazin-1-yl)methyl)phenyl)thieno[3,2-d]pyrimidin-6-yl)methyl)-1-methylimidazolidine-2,4-dione]"
11,> 8.00,"Cc1cc(Cl)cc(-c2ncnc3cc(CN4C(=O)CCN(CC(F)F)C4=O)sc23)c1C[C@@H]1CNCC(C)(C)O1 [Example 240, (R)-3-((4-(5-chloro-2-((6,6-dimethylmorpholin-2-yl)methyl)-3-methylphenyl)thieno[3,2-d]pyrimidin-6-yl)methyl)-1-(2,2-difluoroethyl)dihydropyrimidine-2,4(1H,3H)-dione]"
12,> 8.00,"Cc1cc(Cl)cc(-c2ccnc3cc(CN4C(=O)C5C(C4=O)C5(C)C)sc23)c1CN1CCN(C)C[C@@H]1C (stereo partly drawn) [Example 23, 3-((7-(5-chloro-2-(((S)-2,4-dimethylpiperazin-1-yl)methyl)-3-methylphenyl)thieno[3,2-b]pyridin-2-yl)methyl)-6,6-dimethyl-3-azabicyclo[3.1.0]hexane-2,4-dione]"
13,> 8.00,"Cc1cc(Cl)cc(-c2ccnc3cc(CN4C(=O)C5CC5C4=O)sc23)c1C[C@H]1OCCN[C@@H]1C (stereo partly drawn) [Example 104, 3-((7-(5-chloro-3-methyl-2-(((2R,3R)-3-methylmorpholin-2-yl)methyl)phenyl)thieno[3,2-b]pyridin-2-yl)methyl)-3-azabicyclo[3.1.0]hexane-2,4-dione]"
